Reference: ChEMBL document CHEMBL1149943, “2-aminoalchohol immunosuppressants: Structure-activity relationships” (Bioorg Med Chem Lett, 1996)
pIC50: −log10 of the molar value.

organism: Mus musculus; assay: Compound was tested for its effect on mouse allogenic mixed lymphocyte reaction(MLR).; assay type: functional, organism-based

Structure (SMILES)	pIC50
CCCCCCCCc1ccc(CC[C@@H](N)CO)cc1	6.97
CCCCCCCCCCCCCC[C@H](N)CO	6.86
CCCCCCCCCCCCCC[C@@H](N)CO	7.16
CCCCCCCCc1ccc(CC[C@H](N)CO)cc1	6.37
CCCCCCCCCCCCCCCCCC[C@H](N)CO	5.86
CCCCCCCCCCCCCCCCCC[C@@H](N)CO	6.27
CCCCCCCCc1ccc(CCC(N)CO)cc1 (stereo not given)	6.68
CCCCCCCCCCCCCCC(N)CO (racemic)	7.01
CCCCCCCCCCCCCCCCCCC(N)CO (racemic)	6.06
CCCCCCCCc1ccc(CCC(N)(CO)CO)cc1 [FINGOLIMOD]	7.17
